Measured values from patent publication US9539270B2, “Methods for providing sialylated oligosaccharides” (priority 2011, dated 2017).

Molecular target: T1, Trypanosoma cruzi trans-sialidase (TcTS) (Trypanosoma cruzi, UniProt Q26966)
T1 construct: 6xHis (N); made in house; host or cells: E. coli TOP10 or BL21(DE3)
Assay: Affinity of TcTS for the sialic acid donor substrates (kinetic incubations with lactose as acceptor)
Type: biochemical
Conditions: TcTS 4.5 mU/ml; 0.1-10.0 mM 4MU-Neu5Ac as donor; 1 mM lactose as acceptor
Experimental: In kinetic experiments with partially purified TcTS, 4MU-Neu5Ac or industrially available κ-casein-derived glycomacropeptide (GMP) as donors and lactose as acceptor, the formation of 3′SL was quantitatively determined after 15 and 30 min of incubation, making use of high-pH anion-exchange chromatography with pulsed amperometric detection (HPAEC-PAD). For both donors, the optimal temperature for the transfer reaction, deduced from a series of temperatures ranging from 15-50° C., with increments of 5° C., turned out to be 25° C., which is similar to the optimal temperature reported in literature (Scudder et al., J. Biol. Chem. 268: 9886-9891, 1993).
The affinity of TcTS for the sialic acid donor substrates 4MU-Neu5Ac and GMP was tested by performing incubations (4.5 mU/ml) with an appropriate range of these substrates and a fixed concentration of lactose as acceptor.

T1 sequence (Q26966 entry or part of it): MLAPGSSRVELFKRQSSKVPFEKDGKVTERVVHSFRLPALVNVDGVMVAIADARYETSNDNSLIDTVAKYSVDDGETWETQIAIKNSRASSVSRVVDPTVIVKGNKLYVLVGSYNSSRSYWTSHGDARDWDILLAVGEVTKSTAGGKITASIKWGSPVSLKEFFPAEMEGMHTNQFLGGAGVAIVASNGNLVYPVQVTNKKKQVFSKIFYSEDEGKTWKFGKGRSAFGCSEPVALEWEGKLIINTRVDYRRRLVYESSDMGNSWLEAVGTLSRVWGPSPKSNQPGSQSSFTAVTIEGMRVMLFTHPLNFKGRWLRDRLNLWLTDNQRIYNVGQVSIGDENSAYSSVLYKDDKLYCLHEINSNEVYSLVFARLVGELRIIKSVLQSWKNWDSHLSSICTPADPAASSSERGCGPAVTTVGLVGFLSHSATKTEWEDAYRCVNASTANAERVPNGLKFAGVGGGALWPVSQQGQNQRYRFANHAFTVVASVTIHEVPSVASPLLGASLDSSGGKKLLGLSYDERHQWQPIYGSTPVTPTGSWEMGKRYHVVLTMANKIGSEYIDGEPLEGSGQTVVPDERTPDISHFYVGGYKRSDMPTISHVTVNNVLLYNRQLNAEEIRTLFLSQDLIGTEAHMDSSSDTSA

SMILES: CC(=O)N[C@H]1[C@H]([C@H](O)[C@H](O)CO)OC(Oc2ccc3c(C)cc(=O)oc3c2)(C(=O)O)C[C@@H]1O (stereo partly drawn) [4MU-Neu5Ac, 2′-(4-methylumbelliferyl)-α-N-acetylneuraminic acid]
- Km: 1650 µM
- Vmax: 1.5 U/mg
